Data taken from patent US20260049077A1, “Neurotrophic Receptor Tyrosine Kinase (NTRK) Inhibitors and Methods Using Same” (Baylor College of Medicine, priority 2022, published 2026).

Legend:
endometriotic lesions = test: Endometriosis mouse model, lesion efficacy; assay type: in vivo; settings: for endometriotic lesion growth: excised lesions
Experimental: FIGS. 17A-17F depict the robust efficacy of the inhibitory compounds of the present disclosure as NTRK2 inhibitors for inhibition of endometriotic lesion growth in mice utilizing CDD-3132 as an example. FIG. 17A provides a schematic overview of the experiment performed. FIGS. 17B-17C provide photographs showing excised lesions with administration of a control (FIG. 17B) or CDD-3132 (10 mg/kg/day) (FIG. 17C).
(§1) In one aspect, the present disclosure provides exemplary data relating to the administration of NTRK2 inhibitors in a mouse model of endometriosis (FIG. 14). In certain embodiments, the recipient mouse is administered the NTRK2 inhibitor and/or controls on day 14 after intraperitoneal injection of endometrium of the donor mouse. In certain embodiments, the recipient mouse is sacrificed and quantitatively assessed on day 28.

NTRK2 = NTRK2 (Homo sapiens (Human), UniProt Q16620); test: NTRK2 inhibition (IC50); assay type: biochemical
[1] = Metabolic stability in human liver microsomes (HLM)
NTRK1 = NTRK1 (Homo sapiens (Human), UniProt P04629); test: NTRK1 inhibition (IC50); settings: read-out: NTRK1 IC50
[2] = Metabolic stability in mouse liver microsomes (MLM)
NTRK3 = NTRK3 (Homo sapiens (Human), UniProt Q16288); test: NTRK3 inhibition (IC50); settings: read-out: NTRK3 IC50
[3] = Brain uptake in mice 24 hours post-administration; assay type: in vivo, mouse; settings: mouse, brain, 24 h, read-out: Brain Concentration at 24 h (ng/mg)
[4] = Endometriosis mouse model, liver and kidney toxicity (organ weight, ALT, AST); assay type: in vivo; parameters: ALT (Mean ± SD) / AST (Mean ± SD): unit not given here; settings: for effect on liver and/or kidney weight and/or serum elevation of ALT and AST: 10 mg/kg, mice with endometriotic lesions; for ALT (Mean ± SD) / AST (Mean ± SD): i.p. dose of 10 mg/kg/day for 14 days
Experimental: as §1

[5] = 10 mg/kg, compared to vehicle control

NTRK1, sequence (P04629 33-796): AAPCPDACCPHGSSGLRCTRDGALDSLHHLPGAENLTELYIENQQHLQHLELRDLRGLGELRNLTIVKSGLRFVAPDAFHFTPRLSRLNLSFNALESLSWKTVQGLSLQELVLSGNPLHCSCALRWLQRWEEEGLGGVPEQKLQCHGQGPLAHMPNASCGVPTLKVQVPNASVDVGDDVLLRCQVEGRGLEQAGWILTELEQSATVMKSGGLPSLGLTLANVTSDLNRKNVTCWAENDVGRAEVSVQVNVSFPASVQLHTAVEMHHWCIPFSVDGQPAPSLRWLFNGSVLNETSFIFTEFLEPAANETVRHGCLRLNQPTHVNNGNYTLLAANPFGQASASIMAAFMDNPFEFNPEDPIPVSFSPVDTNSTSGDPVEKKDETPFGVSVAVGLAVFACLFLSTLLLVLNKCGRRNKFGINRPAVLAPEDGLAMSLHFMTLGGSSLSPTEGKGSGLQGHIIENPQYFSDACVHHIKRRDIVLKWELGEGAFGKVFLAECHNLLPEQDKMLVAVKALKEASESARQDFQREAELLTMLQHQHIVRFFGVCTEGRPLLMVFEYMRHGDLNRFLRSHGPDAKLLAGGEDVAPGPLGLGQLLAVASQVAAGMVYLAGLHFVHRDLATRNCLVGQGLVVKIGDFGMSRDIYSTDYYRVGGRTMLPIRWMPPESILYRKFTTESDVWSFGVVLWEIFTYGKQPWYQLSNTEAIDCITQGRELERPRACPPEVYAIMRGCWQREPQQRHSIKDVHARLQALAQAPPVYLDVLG
NTRK3, sequence (Q16288 32-839): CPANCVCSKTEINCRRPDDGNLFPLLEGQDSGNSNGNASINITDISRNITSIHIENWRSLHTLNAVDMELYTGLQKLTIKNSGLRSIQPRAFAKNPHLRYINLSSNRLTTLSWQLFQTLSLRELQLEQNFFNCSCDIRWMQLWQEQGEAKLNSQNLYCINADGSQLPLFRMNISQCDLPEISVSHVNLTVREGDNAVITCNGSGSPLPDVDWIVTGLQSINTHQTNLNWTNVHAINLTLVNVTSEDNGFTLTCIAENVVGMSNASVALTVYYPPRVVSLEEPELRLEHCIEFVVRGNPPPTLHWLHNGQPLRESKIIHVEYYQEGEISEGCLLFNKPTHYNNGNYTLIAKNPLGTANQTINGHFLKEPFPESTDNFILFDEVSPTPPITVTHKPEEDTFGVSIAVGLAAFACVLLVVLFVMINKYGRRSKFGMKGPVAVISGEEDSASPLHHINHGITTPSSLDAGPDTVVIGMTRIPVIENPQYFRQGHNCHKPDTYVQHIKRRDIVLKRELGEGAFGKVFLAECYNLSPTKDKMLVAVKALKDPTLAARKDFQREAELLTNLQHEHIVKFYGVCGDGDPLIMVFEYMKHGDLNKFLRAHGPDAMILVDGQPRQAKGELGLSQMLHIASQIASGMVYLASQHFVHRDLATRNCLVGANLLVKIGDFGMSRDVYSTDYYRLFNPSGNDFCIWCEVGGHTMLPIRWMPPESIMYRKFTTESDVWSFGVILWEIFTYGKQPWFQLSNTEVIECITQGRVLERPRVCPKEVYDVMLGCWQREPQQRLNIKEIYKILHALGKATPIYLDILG
NTRK2, sequence (Q16620 32-822): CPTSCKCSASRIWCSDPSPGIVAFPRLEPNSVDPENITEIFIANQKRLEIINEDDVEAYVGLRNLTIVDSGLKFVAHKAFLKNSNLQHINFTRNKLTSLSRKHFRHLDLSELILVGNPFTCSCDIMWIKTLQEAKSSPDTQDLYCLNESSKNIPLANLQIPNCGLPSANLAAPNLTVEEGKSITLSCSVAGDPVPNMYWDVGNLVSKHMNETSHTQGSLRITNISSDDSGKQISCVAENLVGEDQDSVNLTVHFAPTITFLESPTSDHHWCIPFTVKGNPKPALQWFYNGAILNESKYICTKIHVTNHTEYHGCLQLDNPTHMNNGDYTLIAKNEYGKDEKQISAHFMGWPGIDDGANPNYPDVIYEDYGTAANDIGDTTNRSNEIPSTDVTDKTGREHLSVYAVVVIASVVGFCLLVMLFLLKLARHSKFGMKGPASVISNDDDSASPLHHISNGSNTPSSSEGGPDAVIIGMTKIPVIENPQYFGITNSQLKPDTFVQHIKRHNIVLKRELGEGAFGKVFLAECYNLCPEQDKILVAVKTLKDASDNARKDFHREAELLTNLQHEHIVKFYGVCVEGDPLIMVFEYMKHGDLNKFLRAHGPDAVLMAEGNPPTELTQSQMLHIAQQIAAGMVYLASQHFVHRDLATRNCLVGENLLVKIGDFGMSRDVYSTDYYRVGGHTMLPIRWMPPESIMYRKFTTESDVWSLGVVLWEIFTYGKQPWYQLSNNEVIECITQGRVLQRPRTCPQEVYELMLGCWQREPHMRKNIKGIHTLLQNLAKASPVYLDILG

SMILES	IC50 (NTRK2) [nM]	half-life [1] [min]	IC50 (NTRK1) [nM]	half-life [2] [min]	IC50 (NTRK3) [nM]	further results
O=C(Nc1ccccc1C(=O)NC1CCCCNC1=O)c1cc2ccccc2s1 (stereo not shown) [ANA-12, reference compound]						endometriotic lesion regression (endometriotic lesions; mice): endometriotic lesion regression
NC(=O)c1cnn2ccc(CNC(=S)Nc3ccc(OC(F)(F)F)cc3)cc12 [CDD-3131, 5-((3-(4-(trifluoromethoxy)phenyl)thioureido)methyl)pyrazolo[1,5-a]pyridine-3-carboxamide]	132	237	749	351	153	
CN(Cc1ccn2ncc(C(N)=O)c2c1)C(=O)COc1ccc(OC(F)(F)F)cc1 [CDD-3132, 5-((N-methyl-2-(4-(trifluoromethoxy)phenoxy)acetamido)methyl)pyrazolo[1,5-a]pyridine-3-carboxamide]	517	691	4560	706	1370	number, volume and mass of lesions (endometriotic lesions; [5]): reduction of lesions, volume of lesions, and mass of lesions; size of endometriotic lesions (endometriotic lesions; [5]): decreased size of endometriotic lesions; endometriotic lesion growth (endometriotic lesions; 10 mg/kg): inhibiting endometriotic lesion growth; proliferation, vascularization, macrophage infiltration, inflammation within endometriotic lesions (endometriotic lesions; 10 mg/kg, H&E staining, confocal microscopy): reduction of proliferation, vascularization, macrophage infiltration, and/or inflammation; effect on liver and/or kidney weight and/or serum elevation of ALT and AST [4]: little to no effect; ALT (Mean ± SD) [4]: 20.5 ± 12.6; AST (Mean ± SD) [4]: 33.5 ± 20.6; impact on liver and kidney weights ([4]; mice treated for 14 days): no significant impact
CC(=O)c1ccc(OCC(=O)N(Cc2ccn3ncc(C(N)=O)c3c2)C(C)C)cc1 [CDD-3256, 5-((2-(4-acetylphenoxy)-N-isopropylacetamido)methyl)pyrazolo[1,5-a]pyridine-3-carboxamide]	223	> 200	1870	> 200	312	
CC(=O)c1ccc(OCC(=O)N(C)Cc2ccn3ncc(C(N)=O)c3c2)cc1 [CDD-3257, 5-((2-(4-acetylphenoxy)-N-methylacetamido)methyl)pyrazolo[1,5-a]pyridine-3-carboxamide]	10600	> 200	58200	> 200	10900	
CN(Cc1ccn2ncc(C(N)=O)c2c1)C(=O)CNc1ccc(OC(F)(F)F)cc1 [CDD-3258, 5-((N-methyl-2-((4-(trifluoromethoxy)phenyl)amino)acetamido)methyl)pyrazolo[1,5-a]pyridine-3-carboxamide]	963	270	11000	338	2320	
CC(C)(CO)n1cc(C(=O)c2cncc(NC(=O)Cc3ccc(Cl)cn3)c2)c2cnc(N)nc21 [PF-0672, reference compound]						effect on liver and/or kidney weight and/or serum elevation of ALT and AST [4]: little to no effect
CC(C)(CO)n1cc(C(=O)c2cncc(NC(=O)Cc3ccc(Cl)cn3)c2)c2cnc(N)nc21 [PF-06273340, N-[5-[[2-Amino-7-(2-hydroxy-1,1-dimethylethyl)-7H-pyrrolo[2,3-d]pyrimidin-5-yl]carbonyl]-3-pyridinyl]-5-chloro-2-pyridineacetamide, reference compound]		502		202		number, volume and mass of lesions (endometriotic lesions; [5]): reduction of lesions, volume of lesions, and mass of lesions; endometriotic lesion growth (endometriotic lesions; 10 mg/kg): inhibiting endometriotic lesion growth; concentration at 24 h [3]: 80 ng/g; ALT (Mean ± SD) [4]: 15.1 ± 1.6; AST (Mean ± SD) [4]: 25.3 ± 7.1

The remaining molecules from weak to strong by IC50 (NTRK2), led by results:

IC50 (NTRK2) [nM]	half-life [1] [min]	IC50 (NTRK1) [nM]	half-life [2] [min]	IC50 (NTRK3) [nM]	SMILES	further results
59	193	277	143	142	CC(C)N(Cc1ccn2ncc(C(N)=O)c2c1)C(=O)CNc1ccc(OC(F)(F)F)cc1 [CDD-3254, 5-((N-isopropyl-2-((4-(trifluoromethoxy)phenyl)amino)acetamido)methyl)pyrazolo[1,5-a]pyridine-3-carboxamide]	
31.5	45	357	19	54	C=C(C)c1ccc(OCC(=O)N(Cc2ccn3ncc(C(N)=O)c3c2)C(C)C)cc1 [CDD-3255, 5-((N-isopropyl-2-(4-(prop-1-en-2-yl)phenoxy)acetamido)methyl)pyrazolo[1,5-a]pyridine-3-carboxamide]	
19	382	151	688	21.5	CN(Cc1ccn2ncc(C(N)=O)c2c1)C(=S)Nc1ccc(OC(F)(F)F)cc1 [CDD-3118, 5-((1-methyl-3-(4-(trifluoromethoxy)phenyl)thioureido)methyl)pyrazolo[1,5-a]pyridine-3-carboxamide]	
6.7	107	61	6.1	15.3	CC(C)N(Cc1ccn2ncc(C(N)=O)c2c1)C(=O)COc1ccc(C(C)(C)C)cc1 [CDD-3184, 5-((2-(4-(tert-butyl)phenoxy)-N-isopropylacetamido)methyl)pyrazolo[1,5-a]pyridine-3-carboxamide]	
5.8	128	11.7	41	4.4	CC(C)N(Cc1ccn2ncc(C#N)c2c1)C(=O)Nc1ccc(OC(F)(F)F)cc1 [CDD-2741, 1-((3-cyanopyrazolo[1,5-a]pyridin-5-yl)methyl)-1-isopropyl-3-(4-(trifluoromethoxy)phenyl)urea]	
4.5	11.5	12.4	5	5.3	O=C(Nc1ccccc1C(F)(F)F)N(Cc1ccn2nccc2c1)C1CCC1 [CDD-2274, 1-cyclobutyl-1-(pyrazolo[1,5-a]pyridin-5-ylmethyl)-3-(2-(trifluoromethyl)phenyl)urea]	
4.3	602	16.6	185	10.1	CC(C)N(Cc1ccn2ncc(C(N)=O)c2c1)C(=O)COc1ccc(OC(F)(F)F)cc1 [CDD-3133, 5-((N-isopropyl-2-(4-(trifluoromethoxy)phenoxy)acetamido)methyl)pyrazolo[1,5-a]pyridine-3-carboxamide]	
1.7	388	18.1	121	2.9	CC(C)N(Cc1ccn2ncc(C(=N)NO)c2c1)C(=O)Nc1ccc(OC(F)(F)F)cc1 [CDD-2744, N-hydroxy-5-((1-isopropyl-3-(4-(trifluoromethoxy)phenyl)ureido)methyl)pyrazolo[1,5-a]pyridine-3-carboximidamide]	
0.52	381	7.5	224	1.51	NC(=O)c1cnn2ccc(CN(C(=O)Nc3ccc(OC(F)(F)F)cc3)C3CC3)cc12 [CDD-2738, 5-((1-cyclopropyl-3-(4-(trifluoromethoxy)phenyl)ureido)methyl)pyrazolo[1,5-a]pyridine-3-carboxamide]	concentration at 24 h [3]: 2300 ng/g
